Legend:
hP2X3R = target: T1, hP2X3R (Homo sapiens, UniProt P56373); assay: Calcium influx (Fluo-4) evoked by α,β-meATP in HEK293 cells stably expressing hP2X3R; assay type: cell-based; details: antagonistic activity; HEK293 cells expressing hP2X3R; agonist at EC70
T1 construct: expressed in transfected cells
T1 sequence (P56373 1-397): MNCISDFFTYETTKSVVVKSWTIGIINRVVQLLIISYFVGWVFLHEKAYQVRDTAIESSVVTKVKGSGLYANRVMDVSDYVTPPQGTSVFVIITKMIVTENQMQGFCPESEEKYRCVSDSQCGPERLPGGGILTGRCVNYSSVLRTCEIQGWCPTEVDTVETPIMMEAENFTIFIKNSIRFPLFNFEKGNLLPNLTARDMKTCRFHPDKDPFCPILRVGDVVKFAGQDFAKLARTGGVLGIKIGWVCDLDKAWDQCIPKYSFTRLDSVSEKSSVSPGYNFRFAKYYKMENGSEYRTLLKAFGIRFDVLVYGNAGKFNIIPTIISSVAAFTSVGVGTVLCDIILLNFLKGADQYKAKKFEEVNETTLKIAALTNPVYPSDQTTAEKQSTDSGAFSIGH
Experimental: For the evaluation of P2XR activities, a cell-based assay system was employed to measure the level of fluorescence emission, based on Fluo-4 dye, during Ca^2+ influx evoked by αβmeATP in HEK293 cells stably expressing hP2X2/3R and hP2X3R. The library containing 8364 representative compounds for the screening of antagonistic activity was provided by the Korea Chemical Bank. The antagonistic activities were evaluated in the presence of P2X3R agonist of the concentration for EC70 value (200–250 nM for hP2X3R and 1–4 μM for hP2X2/3R highly expressed cell lines), and AF353 was used as the positive control antagonist for comparison. For the first round of screening, a single concentration (25 μM) of each library compound was tested to identify initial hit compounds, which were subsequently validated using both concentrations of 25 and 10 μM. Using a cut-off threshold of higher than 50% antagonistic activity and after confirming dose-dependency, 12 main hit compounds were selected.
(§1) 3.4. Cell-Based Assay: Measurement of Calcium Influx by Fluorescence-Based Fluo-4 Dye Uptake in HEK293 Cells Expressing hP2X2/3 and hP2X3 Receptors
Human P2X3-expressing HEK293 cells were grown in DMEM supplemented with 10% fetal bovine serum and 1% antibiotic–antimycotic as a monolayer culture at 37 °C in a humidified atmosphere of 5% CO2. The 96-well black plates used in the experiments were prepared by coating them with 1× poly-D-lysine (A3890401, Thermo-Fisher Scientific Korea, Seoul, South Korea). An aliquot of 40 μL 1× poly-D-lysine was used to treat each of the wells in a flat orientation. After leaving the plates for at least 4 h to absorb the poly-D-lysine, the plates were allowed to dry for at least 6 h. The DMEM used in the culture of HEK293 cells was removed from the dish, followed by application of 3 mL 1× PBS for washing. Removal of 1× PBS was followed by application of 1 mL trypsin/EDTA, and the cells were collected by centrifugation at 1200 rpm for 2 min. The supernatant was removed, and 1 mL fresh DMEM added. The cells were resuspended in media and plates prepared with 4.8 × 10^4 cells/well in 56 μL/well. After 18 h of cell culture in the 96-well black plate, 56 μL of Fluo-4 dye (Fluo-4 Direct^TM Calcium Assay Kit, F10471, Invitrogen, Thermo-Fisher Scientific Korea, Seoul, South Korea) was added to each well, prepared according to the manufacturer’s protocol, and incubated for 50 min~1 h under culturing conditions. Then, 12.4 μL of the appropriate compound solution was added to each well, and the positive control was AF353 (A1612, Sigma Aldrich Korea, Seoul, South Korea) and the negative control was 5% DMSO. Plates were incubated at room temperature and sealed to avoid interference from light for 50 min~1 h. Flexstation 3 and its software provided by Molecular Devices was used for the measurement of fluorescence in real time of treatments using prepared α,β-meATP (M6517, Sigma Aldrich) solution to evoke calcium influx and increased cell membrane potential.
For the analysis of antagonistic activities, all data were calculated by Origin Pro 9.1 software provided by Originlab and the fitting of graphs was proceeded by the growth/sigmoidal and hill1 process within no weights for data selections. For the analysis of the behavioral assessments of pain models, all data are expressed as mean ± SEM. The dose–response data are presented as percentages of the maximum possible effect. Statistical significance was analyzed by independent t-test. The criterion for statistical significance was p < 0.05. The statistical analysis was performed using SPSS 25.0 software (IBM Corp., Armonk, NY, USA).

hP2X2/3R = target: T2, hP2X2/3R (Homo sapiens, UniProt P56373+Q9UBL9); assay: Calcium influx (Fluo-4) evoked by α,β-meATP in HEK293 cells stably expressing hP2X2/3R; assay type: cell-based; details: antagonistic activity; HEK293 cells expressing hP2X2/3R; agonist at EC70
T2 construct: expressed in transfected cells
T2 sequence (P56373 1-397): T1 sequence (P56373 1-397)
T2 sequence (Q9UBL9 1-471): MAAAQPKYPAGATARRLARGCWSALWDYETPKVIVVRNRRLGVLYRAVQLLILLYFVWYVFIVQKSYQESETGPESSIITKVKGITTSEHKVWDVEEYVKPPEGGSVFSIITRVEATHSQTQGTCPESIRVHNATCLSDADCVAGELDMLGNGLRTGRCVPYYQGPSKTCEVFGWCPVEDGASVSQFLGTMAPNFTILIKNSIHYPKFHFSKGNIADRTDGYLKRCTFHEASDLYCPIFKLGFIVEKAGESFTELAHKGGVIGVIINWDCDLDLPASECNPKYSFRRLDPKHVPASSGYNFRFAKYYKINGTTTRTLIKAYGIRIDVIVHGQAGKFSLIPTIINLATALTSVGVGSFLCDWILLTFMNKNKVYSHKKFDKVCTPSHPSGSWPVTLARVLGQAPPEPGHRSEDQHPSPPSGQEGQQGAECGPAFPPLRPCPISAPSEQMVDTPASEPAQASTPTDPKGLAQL
Experimental: For the evaluation of P2XR activities, a cell-based assay system was employed to measure the level of fluorescence emission, based on Fluo-4 dye, during Ca^2+ influx evoked by αβmeATP in HEK293 cells stably expressing hP2X2/3R and hP2X3R. The library containing 8364 representative compounds for the screening of antagonistic activity was provided by the Korea Chemical Bank. The antagonistic activities were evaluated in the presence of P2X3R agonist of the concentration for EC70 value (200–250 nM for hP2X3R and 1–4 μM for hP2X2/3R highly expressed cell lines), and AF353 was used as the positive control antagonist for comparison. […]
as §1
Human P2X3-expressing HEK293 cells were grown in DMEM supplemented with 10% fetal bovine serum and 1% antibiotic–antimycotic as a monolayer culture at 37 °C in a humidified atmosphere of 5% CO2. […] Flexstation 3 and its software provided by Molecular Devices was used for the measurement of fluorescence in real time of treatments using prepared α,β-meATP (M6517, Sigma Aldrich) solution to evoke calcium influx and increased cell membrane potential. […]

[1] = Metabolic stability in microsomal fraction, human; assay type: in vitro ADME; details: human microsomal fraction, read-out: Metabolic Stability (Microsomal Fr.) % remaining after 30 min
Solubility in DMSO/water = assay type: physicochemical; details: DMSO in water
CYP 2C19 = CYP 2C19 (Homo sapiens, UniProt P33261); assay: CYP450 inhibition 2C19; assay type: in vitro ADME; details: compound 10 μM
BBB-PAMPA permeability = assay type: in vitro ADME; details: UV/vis spectrophotometry

Sequence of CYP 2C19 (P33261 whole entry): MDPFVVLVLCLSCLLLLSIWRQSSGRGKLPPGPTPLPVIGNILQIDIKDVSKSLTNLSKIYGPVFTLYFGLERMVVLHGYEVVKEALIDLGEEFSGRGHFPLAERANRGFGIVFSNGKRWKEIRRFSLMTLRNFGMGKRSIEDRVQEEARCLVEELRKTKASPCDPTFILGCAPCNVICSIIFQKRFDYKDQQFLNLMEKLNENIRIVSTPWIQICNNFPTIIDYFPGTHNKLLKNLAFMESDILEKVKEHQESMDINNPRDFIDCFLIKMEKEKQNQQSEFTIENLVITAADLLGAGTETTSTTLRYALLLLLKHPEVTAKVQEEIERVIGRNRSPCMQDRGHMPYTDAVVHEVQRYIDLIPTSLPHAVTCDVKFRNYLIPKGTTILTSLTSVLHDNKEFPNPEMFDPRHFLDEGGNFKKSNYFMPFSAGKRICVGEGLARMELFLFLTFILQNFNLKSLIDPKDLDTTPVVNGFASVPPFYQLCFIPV

IC50 (hP2X3R): 0.375 ± 0.033 µM | IC50 (hP2X2/3R): 9.1 µM | remaining at 0.5 h [1]: > 99% | Solubility (Solubility in DMSO/water): soluble in 30% DMSO in water | CYP450 inhibition 2C19 (CYP 2C19): 25.6% | BBB-PAMPA logPe (BBB-PAMPA permeability): <−6.000 logPe
SMILES: O=C1C(NC2CCN(C(=O)c3ccc(F)c(F)c3)CC2)=C(Cl)C(=O)c2[nH]c(C(F)(F)F)nc21 [14h, 6-Chloro-5-((1-(3,4-difluorobenzoyl)piperidin-4-yl)amino)-2-(trifluoromethyl)-1H-benzo[d]imidazole-4,7-dione]

Reference: PMC8877008, “Synthesis and Structure–Activity Relationship Studies of Benzimidazole-4,7-dione-Based P2X3 Receptor Antagonists as Novel Anti-Nociceptive Agents” (Molecules, 2022)
